Measurements reported in US10342818B2, “Dual-action compounds targeting adenosine A2A receptor and adenosine transporter for prevention and treatment of neurodegenerative diseases” (Academia Sinica, priority 2009, dated 2019).
“Also recorded” adds a separate entry of the source. Like-named read-outs stand apart in the source and are kept apart here.

Experiments:
human A2A receptor = human A2A receptor (Homo sapiens, UniProt P29274); test: Radioligand binding assay of the A2A receptor (3H-CGS21680, MDS Pharma Services); settings: for Binding with A2AR, result in words: radioligand binding
Description: Radioligand binding assays were performed by MDS Pharma Services Taiwan (Taipei, Taiwan) using standard binding protocols. For the binding assay of the A2A receptor,^46 membrane proteins collected from HEK293 cells overexpressing the human A2A receptor were incubated in reaction buffer [50 mM Tris-HCl (pH 7.4), 10 mM MgCl2, 1 mM EDTA, and 2 U/mL adenosine deaminase] containing ^3H-CGS21680 (50 nM) for 90 min at 25° C. Nonspecific binding was assessed in the presence of 50 μM adenosine-5′-N-ethylcarboxamide (NECA).

[1] = target: T1, equilibrative nucleoside transporter 1 (ENT1) (Cavia porcellus, UniProt H0V4R7); test: Radioligand binding assay for adenosine transporters (3H-NBTI, cerebral cortex membranes); parameters: species or system guinea pig; settings: for Ki: guinea pig equilibrium transporter 1, cerebral cortex membranes, 3H-NBTI 0.5 nM; for Binding with / activity against ENT1, result in words: radioligand binding
T1 construct: Membrane fractions collected from the cerebral cortex of Duncan Hartley derived guinea pigs; tissue MDS Pharma Services Taiwan (assay provider); host or cells: guinea pig cerebral cortex membranes
T1 sequence (H0V4R7 1-461): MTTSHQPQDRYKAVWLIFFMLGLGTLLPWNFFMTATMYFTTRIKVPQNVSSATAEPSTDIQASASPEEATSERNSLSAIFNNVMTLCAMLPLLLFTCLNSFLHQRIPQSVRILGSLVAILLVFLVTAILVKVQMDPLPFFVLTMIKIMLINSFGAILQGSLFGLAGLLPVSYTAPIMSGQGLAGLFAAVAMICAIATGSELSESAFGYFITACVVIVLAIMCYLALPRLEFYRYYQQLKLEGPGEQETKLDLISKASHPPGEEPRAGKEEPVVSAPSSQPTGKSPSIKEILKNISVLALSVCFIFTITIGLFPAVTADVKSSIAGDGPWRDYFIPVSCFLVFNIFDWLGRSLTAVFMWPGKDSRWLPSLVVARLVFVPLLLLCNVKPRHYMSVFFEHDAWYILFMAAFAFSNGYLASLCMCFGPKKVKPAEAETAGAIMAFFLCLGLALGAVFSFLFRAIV
Description: The pharmacological properties of the prepared adenosine analogues were characterized by MDS Pharma Services using radioligand binding assays. […] Except for 11 and 15, the adenosine derivatives having modification at the C-5′ position appeared to deteriorate their binding with A2AR, though they still maintained high affinity with ENT1.

PC12 cells [2] = settings: compound isolated from Gastrodia elata, earlier report; cited from earlier work
PC12 cells [3] = test: MTT metabolism assay, rescue of serum-deprived PC12 cells from apoptosis; assay type: cell-based; settings: 0.01 μM, 24 h
Description: Cell viability was monitored by the MTT assay, and is expressed as a percentage of the MTT activity measured in the serum-containing group. […] Collectively, the dual function of these compounds in activation of adenosine receptor and in inhibition of adenosine transporter might synergistically increase the effective concentration of adenosine, especially when these two proteins are in proximity.
PC12 cells purchased from ATCC (Manassas, Va., USA) were maintained in Dulbecco's modified Eagle's medium (DMEM) supplemented with 10% horse serum and 5% fetal bovine serum and incubated in a CO2 incubator (5%) at 37° C. Survival was assessed by the 3-(4,5-dimethylthiazol-2-yl)-2,5-diphenyltetrazolium bromide (MTT) metabolism assay as described elsewhere.^49,50 In brief, cells grown on 150-mm plates were washed three times with PBS and resuspended in DMEM. Suspended cells (1×10^4 cells) were plated on 96-well plates and treated with or without the indicated reagent. After incubation for 24 h, MTT (0.5 mg/mL) was added to the medium and incubated for 3 h. After discarding the medium, DMSO (100 μL) was then applied to the well to dissolve the formazan crystals derived from the mitochondrial cleavage of the tetrazolium ring by live cells. The absorbance at 570/630 nm in each well was measured on a micro-enzyme-linked immunosorbent assay (ELISA) reader.

Sequence of human A2A receptor (P29274 whole entry): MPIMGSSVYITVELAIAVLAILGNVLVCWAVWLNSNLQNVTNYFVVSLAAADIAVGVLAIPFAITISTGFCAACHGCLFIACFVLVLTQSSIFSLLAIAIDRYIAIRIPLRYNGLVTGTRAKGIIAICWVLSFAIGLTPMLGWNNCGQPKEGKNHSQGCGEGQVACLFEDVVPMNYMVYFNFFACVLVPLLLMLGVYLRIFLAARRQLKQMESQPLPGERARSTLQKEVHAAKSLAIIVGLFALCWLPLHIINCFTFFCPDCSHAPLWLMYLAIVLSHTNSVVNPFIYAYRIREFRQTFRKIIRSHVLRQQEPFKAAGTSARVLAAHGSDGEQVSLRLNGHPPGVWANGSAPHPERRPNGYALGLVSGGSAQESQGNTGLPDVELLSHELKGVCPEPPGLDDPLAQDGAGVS

| SMILES | Ki (human A2A receptor) | Ki [1] | other results |
| --- | --- | --- | --- |
| CCCCc1cn(C[C@H]2O[C@@H](n3cnc4c(NCc5ccc(OC)cc5)ncnc43)[C@H](O)[C@@H]2O)nn1 [Compound 12] | > 100000 nM | 511 nM |  |
| CCNC(=O)C1OC(n2cnc3c(N)nc(NCCc4ccc(CCC(=O)O)cc4)nc32)C(O)C1O (centres unmarked) [CGS, 6-amino-9-(5-ethylcarbamoyl-3,4-dihydroxy-oxolan-2-yl)-2-{2-[4-(2-carboxyethyl)phenyl]ethylamino}purine, reference compound] |  |  | Binding with / activity against ENT1, result in words [1]: lack the activity against ENT1; also recorded: no inhibitory activity toward hENT1 |
| COc1ccc(CNc2ncnc3c2ncn3[C@@H]2O[C@H](CNS(=O)(=O)c3ccc(C)cc3)[C@@H](O)[C@H]2O)cc1 [Compound 10] | > 100000 nM | 200 nM |  |
| OC[C@H]1O[C@@H](n2cnc3c(NCCc4c[nH]c5ccccc45)ncnc32)[C@H](O)[C@@H]1O [Compound 6, N^6-(3-Indolylethyl)adenosine] |  |  | Binding with A2AR, result in words (human A2A receptor): low micromolar; Binding affinity to A2AR of compound 6 relative to compound 11 (human A2A receptor; ratio of Ki values): 10 fold; Binding with / activity against ENT1, result in words [1]: sub-micromolar range; Rescue of PC12 cells from apoptosis evoked by serum withdrawal (cell viability, MTT) (PC12 cells [3]): rescued PC12 cells from the apoptosis evoked by serum withdrawal equally as well as 1 |
| CCCCCCc1cn(C[C@H]2O[C@@H](n3cnc4c(NCc5ccc(OC)cc5)ncnc43)[C@H](O)[C@@H]2O)nn1 [Compound 13] | > 100000 nM | 52 nM |  |
| COc1ccc(CNc2ncnc3c2ncn3[C@@H]2O[C@H](Cn3cc(Cc4ccccc4)nn3)[C@@H](O)[C@H]2O)cc1 [Compound 14] | > 100000 nM | 116 nM |  |
| O=[N+]([O-])c1ccc(CSc2ncnc3c2ncn3[C@@H]2O[C@H](CO)[C@@H](O)[C@H]2O)cc1 [NBTI, S-(4-nitrobenzyl)-6-thioinosine, reference compound] | > 10000 nM | 0.29 nM | Binding with A2AR, result in words (human A2A receptor): no binding ability with A2AR |

Continued, in another order:

| Ki (human A2A receptor) | Ki [1] | SMILES | other results |
| --- | --- | --- | --- |
| > 100000 nM | > 100000 nM | CC1(C)O[C@@H]2[C@H](O1)[C@@H](CO)O[C@H]2n1cnc2c(NCc3ccc(O)cc3)ncnc21 [Compound 1-acetonide, 1-acetonide] |  |
|  | 538 nM | OC[C@H]1O[C@@H](n2cnc3c(NCc4ccc(O)cc4)ncnc32)[C@H](O)[C@@H]1O [Compound 1, N^6-(4-Hydroxybenzyl)adenosine] | Binding with A2AR, result in words (human A2A receptor): low micromolar; Ki (human A2A receptor; read-out: Ki A2A-R, human adenosine A2A receptor, HEK293 membranes, 3H-CGS21680 50 nM): 2620 nM; Binding with / activity against ENT1, result in words [1]: sub-micromolar range; Prevention of apoptosis of serum-deprived PC12 cells (previously reported) (PC12 cells [2]): prevented apoptosis of serum-deprived PC12 cells; Rescue of PC12 cells from apoptosis evoked by serum withdrawal (cell viability, MTT) (PC12 cells [3]): rescued PC12 cells from the apoptosis evoked by serum withdrawal |
| > 100000 nM | 2980 nM | COc1ccc(CNc2ncnc3c2ncn3[C@@H]2O[C@H](CCl)[C@@H](O)[C@H]2O)cc1 [Compound 7] |  |
|  | 581 nM | COc1ccc(CNc2ncnc3c2ncn3[C@@H]2O[C@H](CN=[N+]=[N-])[C@H](O)C2O)cc1 (some centres unmarked) [Compound 8] |  |
| 41800 nM | 960 nM | COc1ccc(CNc2ncnc3c2ncn3[C@@H]2O[C@H](Cn3cc(C)nn3)[C@@H](O)[C@H]2O)cc1 [Compound 11, 5′-Deoxy-5′-(4-methyl-1,2,3-triazol-1-yl)-N^6-(4-methoxybenzyl)adenosine] | melting point: 183 to 183.2 °C |
| > 100000 nM | 1170 nM | COc1ccc(CNc2ncnc3c2ncn3C2OC(c3nnn[nH]3)C(O)C2O)cc1 (centres unmarked) [Compound 16, 2-[6-(4-Methoxybenzylamino)-purin-9-yl]-5-(1H-tetrazol-5-yl)-tetrahydrofuran-3,4-diol] | melting point: 210 to 210.6 °C |
| > 100000 nM | 1430 nM | COc1ccc(CNc2ncnc3c2ncn3[C@@H]2O[C@H](CNC(C)=O)[C@@H](O)[C@H]2O)cc1 [Compound 9, 5′-Acetamido-5′-deoxy-N^6-(4-methoxybenzyl)adenosine] | melting point: 121.1 to 121.6 °C |
| 20300 nM | > 10000 nM | CCNC(=O)C1OC(n2cnc3c(NCc4ccc(O)cc4)ncnc32)C(O)C1O (centres unmarked) [Compound 15, 3,4-Dihydroxy-5-[6-(4-hydroxybenzylamino)-purin-9-yl]-tetrahydrofuran-2-carboxylic Acid Ethylamide] | melting point: 179.7 to 180.5 °C |
| 30100 nM | 318 nM | COc1ccc(CNc2ncnc3c2ncn3[C@@H]2O[C@H](CO)[C@@H](O)[C@H]2O)cc1 [Compound 3, N^6-(4-methoxybenzyl)adenosine] |  |
